Consider six compounds from publication PMC5645785 (Organic & biomolecular chemistry, 2016).

Like-named read-outs stand apart in the source and are kept apart here.

Test [1] addresses Escherichia coli GS (EcGS) (Escherichia coli, UniProt P0A6U8). Nature of the test: EcGS activity, glycogen synthesis direction, absence of ADP. In kind it is biochemical.
Test [2] has as its target Sucrose synthase 4 (SuSy4) (Solanum tuberosum, UniProt P10691). Nature of the test: SuSy4 activity, sucrose synthesis direction, absence of UDP. In kind it is biochemical, Solanum tuberosum L.
Test [3] concerns E. coli trehalose-6-phosphate synthase. The settings on record: cited from earlier work; for IC50: read-out: IC50 trehalose-6-phosphate synthase.
In test [4] the target is T1, Rabbit muscle GPa (RMGPa) (Oryctolagus cuniculus, UniProt P00489).
T1 sequence (P00489 1-843): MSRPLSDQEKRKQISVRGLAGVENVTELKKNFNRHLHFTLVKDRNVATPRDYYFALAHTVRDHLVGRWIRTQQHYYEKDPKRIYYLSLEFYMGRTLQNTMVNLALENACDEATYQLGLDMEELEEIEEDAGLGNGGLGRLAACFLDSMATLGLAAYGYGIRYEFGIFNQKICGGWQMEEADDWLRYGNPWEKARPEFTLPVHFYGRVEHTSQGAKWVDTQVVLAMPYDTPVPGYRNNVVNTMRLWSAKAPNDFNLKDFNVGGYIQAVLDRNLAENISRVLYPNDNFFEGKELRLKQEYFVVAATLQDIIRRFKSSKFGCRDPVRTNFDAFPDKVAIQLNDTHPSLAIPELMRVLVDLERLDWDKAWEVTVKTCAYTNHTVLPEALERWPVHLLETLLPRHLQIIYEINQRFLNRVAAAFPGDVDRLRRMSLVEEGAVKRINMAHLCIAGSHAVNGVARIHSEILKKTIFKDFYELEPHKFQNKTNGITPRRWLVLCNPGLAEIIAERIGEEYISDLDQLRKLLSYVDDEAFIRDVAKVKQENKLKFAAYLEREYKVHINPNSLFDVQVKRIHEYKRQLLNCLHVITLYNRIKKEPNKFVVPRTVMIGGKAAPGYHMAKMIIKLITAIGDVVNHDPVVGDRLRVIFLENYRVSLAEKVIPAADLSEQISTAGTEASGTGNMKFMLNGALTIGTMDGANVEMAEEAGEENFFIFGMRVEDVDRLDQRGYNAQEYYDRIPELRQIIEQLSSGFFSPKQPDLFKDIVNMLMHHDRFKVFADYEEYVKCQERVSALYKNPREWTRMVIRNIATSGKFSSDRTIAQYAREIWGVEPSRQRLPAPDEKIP
Nature of the test: RMGPa activity, glycogen phosphorolysis direction. The test is classed as biochemical. The settings on record: read-out: Km of RMGPa.

Sucrose synthase 4 (SuSy4), sequence (P10691 whole entry): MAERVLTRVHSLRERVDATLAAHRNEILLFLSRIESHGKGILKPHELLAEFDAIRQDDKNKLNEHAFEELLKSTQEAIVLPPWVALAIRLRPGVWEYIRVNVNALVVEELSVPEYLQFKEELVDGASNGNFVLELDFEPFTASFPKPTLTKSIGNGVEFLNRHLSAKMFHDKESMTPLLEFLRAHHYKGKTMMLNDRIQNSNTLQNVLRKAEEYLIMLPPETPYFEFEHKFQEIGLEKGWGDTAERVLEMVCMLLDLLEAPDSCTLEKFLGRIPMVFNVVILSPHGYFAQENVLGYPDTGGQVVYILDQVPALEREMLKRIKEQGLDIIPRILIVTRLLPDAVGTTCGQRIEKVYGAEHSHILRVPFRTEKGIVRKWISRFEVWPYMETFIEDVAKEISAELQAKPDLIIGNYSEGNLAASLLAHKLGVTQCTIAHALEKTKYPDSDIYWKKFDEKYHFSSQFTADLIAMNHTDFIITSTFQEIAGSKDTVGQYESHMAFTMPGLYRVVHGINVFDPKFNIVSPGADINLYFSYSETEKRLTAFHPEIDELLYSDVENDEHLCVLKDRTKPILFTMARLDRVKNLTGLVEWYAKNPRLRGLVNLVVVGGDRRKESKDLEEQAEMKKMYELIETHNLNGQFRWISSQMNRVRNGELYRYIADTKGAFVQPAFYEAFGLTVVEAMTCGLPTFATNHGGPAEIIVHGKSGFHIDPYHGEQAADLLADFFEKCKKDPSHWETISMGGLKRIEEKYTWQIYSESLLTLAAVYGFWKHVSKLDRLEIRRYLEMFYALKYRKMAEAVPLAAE
Escherichia coli GS (EcGS), sequence (P0A6U8 whole entry): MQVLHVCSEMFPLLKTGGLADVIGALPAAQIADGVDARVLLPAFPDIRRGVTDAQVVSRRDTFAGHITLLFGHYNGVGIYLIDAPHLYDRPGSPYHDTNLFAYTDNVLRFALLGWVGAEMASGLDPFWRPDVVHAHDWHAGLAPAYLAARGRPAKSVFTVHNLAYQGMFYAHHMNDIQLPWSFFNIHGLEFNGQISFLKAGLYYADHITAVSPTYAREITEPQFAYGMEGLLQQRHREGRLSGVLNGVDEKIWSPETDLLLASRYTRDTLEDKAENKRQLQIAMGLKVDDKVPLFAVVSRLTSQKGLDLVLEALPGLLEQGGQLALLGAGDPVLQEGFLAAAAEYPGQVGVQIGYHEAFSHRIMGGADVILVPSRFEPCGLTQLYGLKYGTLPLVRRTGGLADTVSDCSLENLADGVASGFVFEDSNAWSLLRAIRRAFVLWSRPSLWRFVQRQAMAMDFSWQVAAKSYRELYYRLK

As for `OC[C@H]1NC[C@@H](O)[C@@H]1O` [DAB, 1,4-dideoxy-1,4-imino-D-arabinitol], the values for the IC50 in test [1] and in test [2] were 1.32 ± 0.01 mM and 246.5 ± 0.1 µM, respectively.

Regarding `OC[C@@H]1NC[C@H](O)[C@H]1O` [LAB], the “Activity (%) EcGS” value in test [1] (remaining activity, 0.5 mM inhibitor, 2 mM ADPG and 4 mg mL−1 glycogen) was 89%. For the same compound, the “Activity (%) SuSy4” value in test [2] (remaining activity, 0.5 mM inhibitor, 5 mM UDPG and 30 mM fructose) was 89%.

Turning to validoxylamine-6′-phosphate, the “improvement of IC50 by UDP” value in test [3] (0.15 mM UDP) is recorded as “ca. 100 fold”. The IC50 is 0.041 mM in test [3] (addition of 0.15 mM UDP) and 5.3 mM in test [3] (without UDP).

Regarding `Nc1ncnc2c1ncn2[C@@H]1O[C@H](COP(=O)(O)OP(=O)(O)O)[C@@H](O)[C@H]1O` [ADP], in test [1] (read-out: Ki EcGS, substrate ADPG), the Ki turned out to be 87 ± 6 µM. The “Type of Inhibition EcGS” value in test [1] (with respect to ADPG) is given as “Competitive”.

On to `O=c1ccn([C@@H]2O[C@H](COP(=O)(O)OP(=O)(O)O)[C@@H](O)[C@H]2O)c(=O)[nH]1` [UDP], for which, in test [2] (read-out: Ki SuSy4, substrate UDPG), the Ki came to 145 ± 48 µM. Moreover, in test [2] (with respect to UDPG), the “Type of Inhibition SuSy4” value was “Competitive”.

As for `O=P(O)(O)O` [Pi, inorganic phosphate], in test [4], the Km is 1.41 mM.
